The values that follow come from publication PMC9029360, “Cyclooxygenase-Inhibiting Platinum(IV) Prodrugs with Potent Anticancer Activity” (Pharmaceutics, 2022).

Series [1] deals with cisplatin-resistant ADDP ovarian (subclone of A2780 cell line). Nature of the series: In vitro cytotoxicity MTT assay, cisplatin-resistant ADDP ovarian. Format: cell-based. The conditions noted are these: for GI50: ADDP (cisplatin-resistant), MTT, 72 h drug exposure, n = 3. A general note: Tetrazolium dyes change colour on reduction, which living cells bring about.
The test system of series [2] is A2780 (ovarian) and ADDP (cisplatin-resistant ovarian) cancer cell lines. Nature of the series: Cellular platinum accumulation by ICP-MS. The series is classed as cell-based. Conditions: 4 h.
In the next series the test system is ADDP cell line. Nature of the series: Cellular platinum accumulation by ICP-MS, ADDP. The series is classed as cell-based.
Series [3] deals with HT29 colon cancer cell line. Conditions: MTT, 72 h, ref [2] Macias et al., Eur. J. Chem. 2015; cited from earlier work.
The test system of series [4] is U87 glioblastoma. Conditions: MTT, 72 h, ref [2] Macias et al., Eur. J. Chem. 2015; cited from earlier work.
For series [5], the system named is MCF-7 breast. The conditions noted are these: MTT, 72 h, ref [2] Macias et al., Eur. J. Chem. 2015; cited from earlier work.
The subject of series [6] is A2780 ovarian. Conditions: MTT, 72 h, ref [2] Macias et al., Eur. J. Chem. 2015; cited from earlier work.
Series [7] concerns H460 lung. Conditions: MTT, 72 h, ref [2] Macias et al., Eur. J. Chem. 2015; cited from earlier work.
The test system of series [8] is A431 skin. Conditions: MTT, 72 h, ref [2] Macias et al., Eur. J. Chem. 2015; cited from earlier work.
Series [9] deals with Du145 prostate cancer cell line. The conditions noted are these: MTT, 72 h, ref [2] Macias et al., Eur. J. Chem. 2015; cited from earlier work.
The test system of series [10] is BE2-C neuroblastoma. Conditions: MTT, 72 h, ref [2] Macias et al., Eur. J. Chem. 2015; cited from earlier work.
The test system of series [11] is SJ-G2 glioblastoma. Conditions: MTT, 72 h, ref [2] Macias et al., Eur. J. Chem. 2015; cited from earlier work.
Series [12] concerns MIA pancreas. The conditions noted are these: MTT, 72 h, ref [2] Macias et al., Eur. J. Chem. 2015; cited from earlier work.
Series [13] relates to MCF10A breast cell line (non-tumour derived). The conditions noted are these: MTT, 72 h, ref [2] Macias et al., Eur. J. Chem. 2015; cited from earlier work.
For series [14], the system named is cisplatin-resistant ADDP ovarian (subclone of A2780 cell line). Conditions: MTT, 72 h, ref [2] Macias et al., Eur. J. Chem. 2015; cited from earlier work.
Series [15] has as its system HT29 colon cancer cell line. Nature of the series: In vitro cytotoxicity MTT assay, HT29 colon. The series is classed as cell-based. The conditions noted are these: n = 3.
For series [16], the system named is U87 glioblastoma. Kind of series: In vitro cytotoxicity MTT assay, U87 glioblastoma. The series is classed as cell-based. The conditions noted are these: 72 h drug exposure, n = 3.
For series [17], the system named is MCF-7 breast. Nature of the series: In vitro cytotoxicity MTT assay, MCF-7 breast. Format: cell-based. Conditions: n = 3.
Series [18] has as its system A2780 ovarian. Kind of series: In vitro cytotoxicity MTT assay, A2780 ovarian. Format: cell-based. Conditions: 72 h drug exposure, n = 3.
The subject of series [19] is H460 lung. Kind of series: In vitro cytotoxicity MTT assay, H460 lung. The series is classed as cell-based. The conditions noted are these: n = 3.
The test system of series [20] is A431 skin. Kind of series: In vitro cytotoxicity MTT assay, A431 skin. The series is classed as cell-based. Conditions: n = 3.
For series [21], the system named is Du145 prostate cancer cell line. Nature of the series: In vitro cytotoxicity MTT assay, Du145 prostate. Format: cell-based. The conditions noted are these: n = 3.
Series [22] concerns BE2-C neuroblastoma. Kind of series: In vitro cytotoxicity MTT assay, BE2-C neuroblastoma. The series is classed as cell-based. The conditions noted are these: 72 h drug exposure, n = 3.
Series [23] has as its system SJ-G2 glioblastoma. Kind of series: In vitro cytotoxicity MTT assay, SJ-G2 glioblastoma. The series is classed as cell-based. The conditions noted are these: 72 h drug exposure, n = 3.
Series [24] has as its system MIA pancreas. Kind of series: In vitro cytotoxicity MTT assay, MIA pancreas. Format: cell-based. The conditions noted are these: 72 h drug exposure, n = 3.
For series [25], the system named is MCF10A breast cell line (non-tumour derived). Nature of the series: In vitro cytotoxicity MTT assay, non-tumour MCF10A breast. Format: cell-based. The conditions noted are these: MCF10A (non-cancerous), 72 h drug exposure, n = 3.
Series [26] is described as follows: Lipophilicity by RP-HPLC (log kw). The series is classed as physicochemical. Conditions: capacity factor extrapolated to 100% water. The protocol:
HPLC experiments were executed on an Agilent (Melbourne, Australia) Technologies 1260 Infinity instrument equipped with a Phenomenex (Sydney, Australia) Onyx^TM Monolithic C18 reverse phase column (100 × 4.6 mm, 130 Å). The mobile phase was comprised of 0.06% TFA in water (solvent A) and 0.06% TFA in an acetonitrile-water mixture (9:1) (solvent B). A sample injection volume of 10 µL was used at a flow rate of 1 mL/min and eluted over a gradient of 0–100% for 15 min. A PDA was used to detect the eluting peaks at 254 nm. Lipophilicity experiments to determine logkw values were undertaken following previously published methods. Rather than a gradient, different isocratic ratios ranging from 28–56% of solvent B were employed and the retention times measured for each complex. Potassium iodide was used as an external dead volume marker to determine the dead time of the column. The following equation was used to calculate the capacity factors:(1) k=tr−t0/t0 where k is the capacity factor, tr is the retention time of the analyte, and t0 is the dead time. Following this, log k was plotted against the percentage of ACN. Five different concentrations of ACN were used to produce a linear plot comprised of R^2 > 0.99. This graph produced the following equation:(2) logk=Sφ+logkw where S is the slope, φ is the % ACN, and the y-intercept, represented as logkw , is the capacity factor of the compound in 100% water.
Lipophilicity studies were carried out to determine the logkw of each complex. This was ascertained through a RP-HPLC based approach whereby complexes were eluted at several isocratic ratios. In turn, retention times were employed as in Equation (1), where the capacity factor (k) was calculated. The log k value at each ratio was then plotted against the percentage of the organic solvent used in solvent B, producing a linear equation that allowed for logkw to be extrapolated (Figure S43). The logkw value represents the retention factor in a 100% aqueous solution; thus, higher values indicate more lipophilic compounds. While this method for determining lipophilicity is slightly different from the shake-flask method, it has been used previously to compare a series of complexes that are structurally similar and is fitting for this group of complexes.

The nature of series [27]: Preliminary NMR reduction study with ascorbic acid. Format: physicochemical. Conditions: D2O with 10X PBS, 37 °C. The protocol: Given that 1–4 were designed on the premise of functionating as prodrugs, it is anticipated that these complexes be reduced to platinum(II) and release their respective axial ligands, which will allow each component to exert its activity. To explore this possibility, preliminary NMR reduction studies were undertaken for 3. The sample was prepared in D2O with 10X PBS before ascorbic acid was added, and the sample was monitored by ^1H NMR at 37 °C. After the addition of ascorbic acid, resonances corresponding to the platinum(II) species appeared, with the intensities increasing over time, while the peaks correlating to platinum(IV) species decreased (Figure 5). Following this, ^195Pt NMR was carried out in order to confirm that the platinum(II) species remained intact.

For series [28], the target named is T1, human COX-2 (Homo sapiens, UniProt P35354).
T1 sequence (P35354 18-604): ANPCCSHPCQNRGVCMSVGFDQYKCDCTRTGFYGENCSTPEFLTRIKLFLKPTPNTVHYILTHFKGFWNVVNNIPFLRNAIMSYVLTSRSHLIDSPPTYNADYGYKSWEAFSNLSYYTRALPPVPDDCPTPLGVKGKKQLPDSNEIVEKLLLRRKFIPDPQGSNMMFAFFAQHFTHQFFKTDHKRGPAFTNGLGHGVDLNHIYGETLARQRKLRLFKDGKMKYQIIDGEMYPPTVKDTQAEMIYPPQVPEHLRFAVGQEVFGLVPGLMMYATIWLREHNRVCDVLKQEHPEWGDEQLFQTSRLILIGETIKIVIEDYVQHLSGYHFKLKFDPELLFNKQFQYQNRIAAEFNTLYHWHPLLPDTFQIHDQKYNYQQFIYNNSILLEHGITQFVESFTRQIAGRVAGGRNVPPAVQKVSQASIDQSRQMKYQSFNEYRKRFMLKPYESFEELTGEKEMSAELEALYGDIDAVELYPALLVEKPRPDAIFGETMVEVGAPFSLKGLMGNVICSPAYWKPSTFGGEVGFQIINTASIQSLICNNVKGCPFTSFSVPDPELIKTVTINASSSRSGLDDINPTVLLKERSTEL
Experimental: (§1) The preparation of standards and samples and the completion of the assay were carried out following the manufacturer’s protocol. As described below, the completion of the assay required three main steps: the preparation of standards, the COX reaction and EIA.
(§2) The preparation of standards involved serial dilution of the prostaglandin (PG)-screening ELISA standard with ELISA buffer.
(§3) All tubes were incubated for 10 min at 37 °C. To initiate the reaction, arachidonic acid (10 µL) was added to each tube. This was incubated for 30 s at 37 °C before stannous chloride (30 µL) was added to stop enzyme catalysis. The tubes were removed from the water bath and vortexed, then incubated for five minutes at room temperature.
(§4) For EIA, ELISA buffer (100 µL) was added to non-specific binding (NSB) wells and ELISA buffer (50 µL) was added to maximum binding (B0) wells; 50 µL from each PG screening standard was added to the standard wells in duplicate. A background sample (50 µL) and COX 100% initial activity samples (50 µL) were added to the wells in duplicate. Each inhibitor sample (50 µL) was added to the wells in triplicate. PG screening acetylcholinesterase (AChE) tracer (50 µL) was added to all wells except for the total activity and blank wells. PG screening ELISA antiserum (50 µL) was added to each well except for the total activity, NSB and blank wells. The plate was covered with plastic film and incubated for 18 h at room temperature on an orbital shaker. The wells were emptied and rinsed with wash buffer five times. Ellman’s reagent (200 µL) was added to each well, followed by AChE tracer (5 µL) in the total activity well. The plate was covered with plastic film and left to develop in the dark using an orbital shaker at room temperature for one hour. The absorbance was recorded at 405 nm using a plate reader.

Series [29] has as its target T1, human COX-2. Nature of the series: biochemical. The conditions noted are these: read-out: COX-2 inhibition.
Experimental: as §1, §2, §3, §4

Where two headings read alike, the source gives them in different places. Some results are limits rather than exact numbers.

For the compound `N.N.[Cl][Pt][Cl]` [Cisplatin, cisplatin], the “fold less active than PHENSS(IV) (GI50 values)” value in [1] (ADDP cell line) was ~ 22 fold. In addition, the “fold decrease in activity in the cisplatin-resistant ADDP cell line compared to the A2780 cell line” value in series [1] (ratio of GI50 values ADDP vs A2780) is 28 fold. Further, the “cellular platinum uptake (rank in words)” value in [2] was “lowest uptake”. Moreover, in the series with ADDP cell line, the “uptake level, fold lower than PHENSS(IV)” value is on record as “~ two-fold”. Moreover, the GI50 – broadly, the concentration at which growth is held to half of that of the control – is 11300 nM in series [3]; 3800 nM in the series with U87 glioblastoma [4]; 6500 ± 800 nM with MCF-7 breast [5]; 1000 ± 100 nM in the series on A2780 ovarian [6]; 900 ± 200 nM with H460 lung [7]; 2400 ± 300 nM with A431 skin [8]. The concentration for 50% growth inhibition (GI50) in series [9] was 1200 ± 100 nM; in the series on BE2-C neuroblastoma [10], 1900 ± 200 nM; in the series on SJ-G2 glioblastoma [11], 400 nM; with MIA pancreas [12], 7500 nM; in series [13] it was 5200 nM; in series [14], 28000 nM.
Take “[Pt(Phen)(SSDACH)(Aspirin)(OH)](NO3)2 [compound 3]”: the 50% growth inhibitory concentration (GI50) in [15] (72 h drug exposure) turned out to be 140 ± 10 nM; in the series with U87 glioblastoma [16], 600 ± 60 nM; with MCF-7 breast [17] (72 h drug exposure) it was 390 ± 80 nM; in the series with A2780 ovarian [18] it was 260 ± 30 nM; with H460 lung [19] (72 h drug exposure), 350 ± 20 nM; in the series with A431 skin [20] (72 h drug exposure), 670 ± 100 nM. In addition, the concentration for 50% growth inhibition (GI50) in [21] (72 h drug exposure) worked out at 140 ± 10 nM; in the series on BE2-C neuroblastoma [22] it was 620 ± 90 nM; in the series with SJ-G2 glioblastoma [23] it was 360 ± 60 nM; in the series with MIA pancreas [24], 160 ± 30 nM; in [25], 210 ± 29 nM; in series [1] it was 200 nM. For the same compound, in series [26], the Log kw was 0.41. Also, the “reduction by ascorbic acid (1H and 195Pt NMR)” value in [27] is given as “reduction to its platinum(II) congener”.
On to `CC(=O)Oc1ccccc1C(=O)O` [Aspirin, aspirin], for which the GI50 in series [15] (Homo sapiens, HT-29, 72 h drug exposure) is over 50000 nM; with U87 glioblastoma [16] it was over 50000 nM; in the series with MCF-7 breast [17] (Homo sapiens, MCF7, 72 h drug exposure), over 50000 nM; with A2780 ovarian [18] (Homo sapiens), over 50000 nM; in the series on H460 lung [19] (Homo sapiens, NCI-H460, 72 h drug exposure), over 50000 nM; with A431 skin [20] (Homo sapiens, A-431, 72 h drug exposure) it was over 50000 nM. Moreover, the GI50 was over 50000 nM in [21] (Homo sapiens, DU-145, 72 h drug exposure); over 50000 nM in the series on BE2-C neuroblastoma [22] (Homo sapiens, BE(2)-C); over 50000 nM with SJ-G2 glioblastoma [23]; over 50000 nM in the series on MIA pancreas [24]; over 50000 nM in series [25] (Homo sapiens, MCF-10A); over 50000 nM in series [1] (Homo sapiens, A2780). Further, the COX-2 inhibition result on human COX-2 [28] (at 7 µM) and at human COX-2 [28] (at 70 µM) was “No inhibition” in each case. The inhibition (usually the percentage by which the read-out fell short of the control) at 700 µM on human COX-2 [29] turned out to be 19%.
